These results are taken from the supplement of paper PMC10307832.

Common to all, as to experiment: relative viability (nuclei count vs DMSO), 5 days (fraction); higher = more cells survive
Compound in test [1]: Cc1ccc2nc(NCCN)c3ncc(C)n3c2c1 + Cc1nc(Nc2ncc(C(=O)Nc3c(C)cccc3Cl)s2)cc(N2CCN(CCO)CC2)n1 [Dasatinib] (partner 0.075 µM)
The method, boiled down: (§1)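 One day after seeding in 1536-well plates, lung cancer cell lines were dosed by pin tool. Dosing was either single-drug or a fixed anchor-drug dose plus five library-drug doses (not always all listed) in √10 steps. After 5 days, nuclei were stained in one fix-and-stain step and counted on 4× images, and relative viability is the nuclei count of treated wells over that of vehicle wells, given as the median of duplicate plates.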

Compound in test [2]: O=C(/C=C/c1ccccc1)NC(NC(=S)Nc1cccc2cccnc12)C(Cl)(Cl)Cl [Salubrinal] + CC(C)C[C@H](NC(=O)[C@H](Cc1ccccc1)NC(=O)c1cnccn1)B(O)O [Bortezomib] (partner 0.002 µM)
The gist of the method:
as §1

Compound in test [3]: O=C(/C=C/c1ccccc1)NC(NC(=S)Nc1cccc2cccnc12)C(Cl)(Cl)Cl [Salubrinal] + Cc1cc(Nc2cc(N3CCN(C)CC3)nc(Sc3ccc(NC(=O)C4CC4)cc3)n2)n[nH]1 [Tozasertib] (partner 0.1 µM)
The method, boiled down:
as §1

Compound in test [4]: O=C(/C=C/c1ccccc1)NC(NC(=S)Nc1cccc2cccnc12)C(Cl)(Cl)Cl [Salubrinal] + Nc1nc2[nH]cc(CCc3ccc(C(=O)N[C@@H](CCC(=O)O)C(=O)O)cc3)c2c(=O)[nH]1 [Pemetrexed] (partner 0.2 µM)
The gist of the method:
as §1

In the case of LCLC-103H, the relative viability in test [1] (first compound 0.04 µM) came out at 0.584; in test [1] (first compound 0.1265 µM) it was 0.495; in test [1] (first compound 0.4 µM), 0.421; in test [1] (first compound 1.265 µM) it was 0.562; in test [1] (first compound 4 µM), 0.442; in test [2] (first compound 0.08 µM), 0.97. Further, the relative viability in test [2] (first compound 0.253 µM) was 0.971; in test [2] (first compound 0.8 µM), 1.2; in test [2] (first compound 2.53 µM) it was 1; in test [2] (first compound 8 µM) it was 1.15; in test [3] (first compound 0.08 µM), 0.487; in test [3] (first compound 0.253 µM), 0.445. The relative viability in test [3] (first compound 0.8 µM) is 0.404; in test [3] (first compound 2.53 µM) it was 0.498; in test [3] (first compound 8 µM), 0.42; in test [4] (first compound 0.08 µM) it was 0.439; in test [4] (first compound 0.253 µM) it was 0.539; in test [4] (first compound 0.8 µM), 0.506. Moreover, the relative viability in test [4] (first compound 2.53 µM) was found to be 0.461; in test [4] (first compound 8 µM) it was 0.457.

As to LOU-NH91, the relative viability in test [1] (first compound 0.04 µM) was determined as 0.562; in test [1] (first compound 0.1265 µM), 0.547; in test [1] (first compound 0.4 µM), 0.531; in test [1] (first compound 1.265 µM) it was 0.539; in test [1] (first compound 4 µM), 0.559; in test [2] (first compound 0.08 µM), 0.481. The relative viability was found to be 0.406 in test [2] (first compound 0.253 µM); 0.55 in test [2] (first compound 0.8 µM); 0.505 in test [2] (first compound 2.53 µM); 0.477 in test [2] (first compound 8 µM); 0.794 in test [3] (first compound 0.08 µM); 0.639 in test [3] (first compound 0.253 µM). Also, the relative viability in test [3] (first compound 0.8 µM) is 0.626; in test [3] (first compound 2.53 µM) it was 0.706; in test [3] (first compound 8 µM), 0.59; in test [4] (first compound 0.08 µM), 0.708; in test [4] (first compound 0.253 µM), 0.368; in test [4] (first compound 0.8 µM), 0.5. Also, the figures for the relative viability in test [4] (first compound 2.53 µM) and in test [4] (first compound 8 µM) were 0.343 and 0.371, respectively.

Take LU99A: the relative viability in test [1] (first compound 0.04 µM) is 0.58; in test [1] (first compound 0.1265 µM) it was 0.605; in test [1] (first compound 0.4 µM) it was 0.622; in test [1] (first compound 1.265 µM), 0.54; in test [1] (first compound 4 µM), 0.544; in test [2] (first compound 0.08 µM) it was 1.3. The relative viability in test [2] (first compound 0.253 µM) stood at 1.31; in test [2] (first compound 0.8 µM) it was 1.37; in test [2] (first compound 2.53 µM) it was 0.971; in test [2] (first compound 8 µM) it was 0.909; in test [3] (first compound 0.08 µM), 0.253; in test [3] (first compound 0.253 µM), 0.267. The relative viability was 0.265 in test [3] (first compound 0.8 µM); 0.275 in test [3] (first compound 2.53 µM); 0.27 in test [3] (first compound 8 µM); 0.176 in test [4] (first compound 0.08 µM); 0.205 in test [4] (first compound 0.253 µM); 0.265 in test [4] (first compound 0.8 µM). For the same cell line, the relative viability worked out at 0.265 in test [4] (first compound 2.53 µM) and 0.185 in test [4] (first compound 8 µM).

Turning to LXF-289, the relative viability was found to be 0.262 in test [1] (first compound 0.04 µM); 0.231 in test [1] (first compound 0.1265 µM); 0.247 in test [1] (first compound 0.4 µM); 0.245 in test [1] (first compound 1.265 µM); 0.275 in test [1] (first compound 4 µM); 1.06 in test [2] (first compound 0.08 µM). Moreover, the relative viability in test [2] (first compound 0.253 µM) was 0.654; in test [2] (first compound 0.8 µM) it was 1.06; in test [2] (first compound 2.53 µM), 0.969; in test [2] (first compound 8 µM), 0.851; in test [3] (first compound 0.08 µM), 0.183; in test [3] (first compound 0.253 µM) it was 0.18. Moreover, the relative viability in test [3] (first compound 0.8 µM) was 0.216; in test [3] (first compound 2.53 µM) it was 0.194; in test [3] (first compound 8 µM) it was 0.201; in test [4] (first compound 0.08 µM) it was 1.06; in test [4] (first compound 0.253 µM), 0.891; in test [4] (first compound 0.8 µM), 0.988. The relative viability in test [4] (first compound 2.53 µM) and in test [4] (first compound 8 µM) was 0.851 throughout.

With NCI-H23, the relative viability turned out to be 0.934 in test [1] (first compound 0.04 µM); 0.798 in test [1] (first compound 0.1265 µM); 0.73 in test [1] (first compound 0.4 µM); 0.779 in test [1] (first compound 1.265 µM); 0.728 in test [1] (first compound 4 µM); 1.25 in test [2] (first compound 0.08 µM). Besides, the relative viability in test [2] (first compound 0.253 µM) was determined as 0.871; in test [2] (first compound 0.8 µM), 1.2; in test [2] (first compound 2.53 µM) it was 1.04; in test [2] (first compound 8 µM), 1.16; in test [3] (first compound 0.08 µM), 0.349; in test [3] (first compound 0.253 µM) it was 0.393. Moreover, the relative viability stood at 0.678 in test [3] (first compound 0.8 µM); 0.305 in test [3] (first compound 2.53 µM); 0.296 in test [3] (first compound 8 µM); 0.674 in test [4] (first compound 0.08 µM); 0.633 in test [4] (first compound 0.253 µM); 0.919 in test [4] (first compound 0.8 µM). The results for the relative viability in test [4] (first compound 2.53 µM) and in test [4] (first compound 8 µM) were 0.653 and 0.421, respectively.

On to NCI-H322M, for which the relative viability in test [1] (first compound 0.04 µM) was found to be 0.251; in test [1] (first compound 0.1265 µM), 0.267; in test [1] (first compound 0.4 µM), 0.259; in test [1] (first compound 1.265 µM) it was 0.269; in test [1] (first compound 4 µM), 0.263; in test [2] (first compound 0.08 µM), 1.33. For the same cell line, the relative viability in test [2] (first compound 0.253 µM) worked out at 1.15; in test [2] (first compound 0.8 µM), 1.26; in test [2] (first compound 2.53 µM), 1.22; in test [2] (first compound 8 µM), 1.19; in test [3] (first compound 0.08 µM), 0.511; in test [3] (first compound 0.253 µM), 0.445. In addition, the relative viability stood at 0.479 in test [3] (first compound 0.8 µM); 0.44 in test [3] (first compound 2.53 µM); 0.469 in test [3] (first compound 8 µM); 0.699 in test [4] (first compound 0.08 µM); 0.578 in test [4] (first compound 0.253 µM); 0.684 in test [4] (first compound 0.8 µM). For the same cell line, the relative viability was 0.574 in test [4] (first compound 2.53 µM) and 0.544 in test [4] (first compound 8 µM).
